Consider two compounds from patent publication US5925369A, “Bis alkanoyl esters of carnitine having bactericidal, fungicidal and antiprotozoal activity” (priority 1996, dated 1999).

One test concerns Gram positive bacteria. The test can be described thus: MIC on Gram positive bacteria (all strains). In kind it is cell-based. How it is done:
Bacterial suspensions are prepared from an overnight culture in Mueller-Hinton broth and are adjusted, in the same medium, to a final concentration of 5.0×10^4 cells/ml in each well of a 96-well microtiter plate. Substance dilutions (0.3 log) in Mueller-Hinton broth are added to the suspensions in order to have a range of final concentrations from 0.19 to 100 mcg/ml.
Microtiters are then incubated at 37° C. for 18 hours. (See L. D. THRUPP, Susceptibility testing of antibiotics in liquid media, in: Antibiotics in laboratory medicine. V. LORIAN Ed., II edition, 4, 93-150, Williams & Wilkins, Baltimora, Md. 21202 U.S.A.).

The next test has as its system C. krusei. The test is described as follows: MIC on yeast-like strains. In kind it is cell-based. As to conditions: Pichia kudriavzevii; C. krusei ISS 1, lab collection; read-out: Minimal Inhibitory Concentration. How it is done:
(§1) Overnight yeast cultures in Sabouraud broth are appropriately washed and diluted in Yeast Nitrogen Base supplemented with asparagine and glucose (Y.N.B.s.) to yield approximately 5.0×10^4 CFU/ml in microtiter wells. Substance dilutions (0.3 log) in Y.N.B.s. are added to these suspensions to a final concentration range from 0.19 to 100 mcg/ml. Microtiter plates are then incubated at 35° C. for 24-48 hours (See PFALLER M., RINALDI M. G., […] J. M., BARTLETT M. S., BODY B. A., ESPINEL-INGROFF A., FROMTLING R. A., HALL G. S., HUGHES G. E., ODDS F. C., SUGAR A. M., Collaborative investigator of variables in susceptibility testing of yeasts, Ant. Agent and Chemoth., 34, 9:1648-1656, 1990. COOK R., McINTYRE K. A., […] J. M., Effects of incubation temperature, inoculum size, and medium on agreement of macro and microdilution broth susceptibility test, results for yeasts, Ant. Agent and Chemoth., 34, 8:1542-1545, 1990. […] E., PAETZNICK V., BODEY G. P., Fluconazole susceptibility testing of "Candida albicans" microtiter method that is indipendent of inoculum size, temperature, and time of reaching, Ant. Agent and Chemoth., 35, 8:1641-1646, 1991).

A further test relates to C. tropicalis. The test is described as follows: MIC on yeast-like strains. In kind it is cell-based. The note with it: Candida tropicalis; C. tropicalis ISS 1, lab collection; read-out: Minimal Inhibitory Concentration. Here is the method: as §1
In the next test the test system is Candida albicans. The test is described as follows: MIC on yeast-like strains. In kind it is cell-based. The note with it: read-out: Minimal Inhibitory Concentration. Here is the method: as §1
Another test deals with S. cerevisiae. The test can be described thus: MIC on yeast-like strains. The test is classed as cell-based. The note with it: Saccharomyces cerevisiae, ATCC7752; S. cerevisiae ATCC 7752, lab collection; read-out: Minimal Inhibitory Concentration. Here is the method: as §1
A further test concerns yeast-like strains. The test can be described thus: MIC on yeast-like strains (all lab collection strains). As to conditions: 5 strains. The test is classed as cell-based. Here is the method: as §1
A further test concerns filamentous fungi. The test can be described thus: MIC on filamentous fungi (all strains). The note with it: for MIC: lab collection, 5 strains. The test is classed as cell-based. How it is done:
The conidia are collected from 72-hour cultures in Sabouraud agar by washing them with Sabouraud broth and 0.5% Tween 80. After a coarse filtration and washing, the resulting suspensions are adjusted to a final concentration of approx. 5.0×10^4 CFU/ml in a microtiter plate. The substances (0.3 log dilutions in Y.N.B.s.) are added to the fungal suspensions in order to generate a range of final concentrations from 0.19 to 100 mcg/ml. The microtiter plates are then incubated at 35° C. for 48-72 hours.

In the next test the test system is dermatophytes. The test can be described thus: MIC on dermatophytes (all strains). In kind it is cell-based. The note with it: for MIC: 22 strains. How it is done: Mycelium fragments, micro and macroaleuriospores are harvested from 7-day fungal cultures grown at 30 ° C. in Potato Dextrose agar by washing them with Sabouraud broth and 0.5% Tween 80. After a coarse filtration and washing, the fungal suspension is resuspended in Yeast Nitrogen Base supplemented with asparagine and glucose (YNBs) to yield a final concentration of 1.0×10^5 infective units/ml in a microtiter plate. The substances (0.3 log dilutions in Y.N.B.s.) are added to the fungal suspensions in order to generate a range of final concentrations from 0.19 to 100 mcg/ml. The microtiter plates are then incubated at 30° C. for 96-120 hours.

The next test deals with bacteria and fungi. The note with it: bactericidal (EP-A-0 552 137) and fungicidal (EP-A-0 552 138); cited from earlier work.
The mark [1] stands for this setting: C. albicans 562, lab collection.
Where [2] appears, read: C. albicans ISS 1, lab collection.
The mark [3] stands for this setting: Candida albicans 1786/94, clinical isolate.
Setting [4] is: Candida albicans IDI D 0101, clinical isolate (eczema, internatal; prior Versus).
Where [5] appears, read: Candida albicans IDI D 0297, clinical isolate (vulvar vaginitis; prior Pevaryl).
Where [6] appears, read: Candida albicans IDI D 1046, clinical isolate (glossitis; prior Daktarin).
Setting [7] is: Candida albicans IDI D 1056, clinical isolate.
Where [8] appears, read: Candida albicans IDI D 1088, clinical isolate.
[9] abbreviates: Candida albicans IDI D 3575, clinical isolate.
The mark [10] stands for this setting: Candida albicans SG 2 III, clinical isolate (vaginitis).
[11] abbreviates: Candida albicans SG 7 I, clinical isolate (Tinea unguis, hands).
[12] abbreviates: Candida albicans SG 14 III, clinical isolate (vaginitis).

Where two headings read alike, the source gives them in different places.

With `CCCCCCCCCCCOC(=O)C[C@H](C[N+](C)(C)C)OC(=O)CC(C)C` [ST 1103, isovaleryl L-carnitine undecyl ester methanesulfonate, reference compound], the MIC was determined as 3.9 µg/mL in the test on Gram positive bacteria (clinical isolates, 10 strains); 4.06 µg/mL in the test on Gram positive bacteria (lab collection, 5 strains); 3.12 µg/mL in the test on C. krusei; 3.12 µg/mL with C. tropicalis; 3.12 µg/mL in the test with Candida albicans (setting [1]); 1.56 µg/mL in the test with Candida albicans (setting [2]). Moreover, the MIC in the test with Candida albicans (setting [3]) was 6.25 µg/mL; with Candida albicans (setting [4]), 6.25 µg/mL; in the test with Candida albicans (setting [5]), 3.12 µg/mL; with Candida albicans (setting [6]), 3.12 µg/mL; with Candida albicans (setting [7]), 3.12 µg/mL; with Candida albicans (setting [8]), 3.12 µg/mL. In addition, the MIC in the test with Candida albicans (setting [9]) was found to be 6.25 µg/mL; in the test with Candida albicans (setting [10]), 6.25 µg/mL; with Candida albicans (setting [11]) it was 3.12 µg/mL; in the test on Candida albicans (setting [12]) it was 6.25 µg/mL; with S. cerevisiae, 3.12 µg/mL; against yeast-like strains, 2.8 µg/mL. Moreover, the figures for the MIC with filamentous fungi and in the test with dermatophytes were 18.8 µg/mL and 13.5 µg/mL, respectively. The “activity among the known compounds” value in the test with bacteria and fungi was “most active both as bactericidal and fungicidal agent”.

As to `CCCCCCCCCCC(=O)O[C@H](CC(=O)OCc1ccc(COC(=O)C[C@H](C[N+](C)(C)C)OC(=O)CCCCCCCCCC)cc1)C[N+](C)(C)C` [ST 1226, bis(undecanoyl L-carnitine chloride)p-xylilene diester], the MIC in the test with C. krusei stood at 3.12 µg/mL; with C. tropicalis it was 1.56 µg/mL; in the test with Candida albicans (setting [1]) it was 3.12 µg/mL; in the test with Candida albicans (setting [2]), 3.12 µg/mL; in the test on Candida albicans (setting [3]) it was 3.12 µg/mL; in the test with Candida albicans (setting [4]), 1.56 µg/mL. Further, the MIC was 3.12 µg/mL with Candida albicans (setting [5]); 3.12 µg/mL in the test with Candida albicans (setting [6]); 1.56 µg/mL in the test on Candida albicans (setting [7]); 3.12 µg/mL in the test with Candida albicans (setting [8]); 3.12 µg/mL with Candida albicans (setting [9]); 1.56 µg/mL in the test on Candida albicans (setting [10]). Moreover, the MIC came out at 3.12 µg/mL with Candida albicans (setting [11]); 1.56 µg/mL in the test with Candida albicans (setting [12]); 1.56 µg/mL in the test on S. cerevisiae; 2.49 µg/mL in the test on yeast-like strains; 8.43 µg/mL against filamentous fungi; 3.19 µg/mL in the test on dermatophytes. Also, the “activity compared with ST 1103” value was “markedly higher activity than ST 1103” with filamentous fungi (single results and mean MIC); “higher activity than ST 1103” in the test with dermatophytes.
